The structures appear in SMILES notation. Structures can show the parent of a compound that is named as a salt.

Here are results for one molecule from patent US5149717A, “Alkanophenones useful for treating allergies” (Ciba-Geigy Corporation, priority 1988, dated 1992).

The target of test [1] is phospholipase C obtained from human thrombocytes. Nature of the test: In vitro test to determine the inhibition of phospholipase C obtained from human thrombocytes. The conditions noted are these: under the described test conditions. Type of test: biochemical. How it is done: Human thrombocytes are obtained from "Buffy coats" by fractional centrifugation and are then deep-frozen. The phospholipase C is freed by ultrasound treatment of the cell suspension and after ultracentrifugation (150,000×g for 1 hour) is present in soluble form in the supernatant.
In order to determine the enzyme activity, enzyme (20-100 μg of protein) is incubated at 37° for 5 minutes in 0.025M tris/maleate buffer pH 6 with the addition of 0.2 mmol of CaCl2 and 0.02 mmol of radioactively labelled substrate, phosphatidyl-[^14 C]-inositol. The reaction is stopped by shaking with CHCl3 /CH3 OH 2:1 (v/v), in the course of which unused substrate is extracted into the organic phase, while the reaction product, ^14 C-inositol phosphate, remains in the aqueous phase and can be measured by radiometry of an aliquot.
In order to detect an inhibitory action of test substances on phospholipase C, the test substances are added to the incubation mixture in the form of solutions in water, dimethyl sulfoxide (final concentration in the batch up to 5%, v/v) or ethanol (final concentration in the batch up to 2.5%, v/v). […] The IC50 is determined graphically by plotting the percentage inhibition on the ordinate against the log of the concentration (μm) on the abscissa.

Test [2] addresses phospholipase A2 obtained from human leucocytes. Nature of the test: In vitro test to determine the inhibition of phospholipase A2 obtained from human leucocytes. It counts as biochemical. Particulars: under the described test conditions.
Procedure: Neutrophilic polymorpho-nuclear human leucocytes are isolated from "Buffy coats" by multi-step fractional sedimentation and are deep-frozen. The phospholipase A2 is extracted from the cell suspension by homogenisation with the addition of ice-cold 0.36N H2 SO4 in 2N NaCl and the supernatant obtained after centrifugation at 10,000×g is dialysed against sodium acetate buffer pH 4.5.
In order to determine the enzyme activity, enzyme (10-30 μg of protein) is incubated at 37° for 1 hour in 0.1M tris/HCl buffer pH 7 with the addition of 1 mmol of CaCl2 and substrate consisting of phospholipids (2 μm) of Escherichia coli radioactively labelled biosynthetically with ^14 C-oleic acid. The reaction is stopped by the addition of Dole reagent (isopropanol/heptane/1N H2 SO4 40:10:1, v/v) and the ^14 C-oleic acid freed selectively by phospholipase A2 is extracted. […]
In order to detect an inhibitory action of test substances on phospholipase A2, the test substances are added to the incubation mixture in the form of solutions in water, dimethyl sulfoxide (final concentration in the batch up to 5%, v/v) or ethanol (final concentration in the batch up to 2.5%, v/v). […] The IC50 is determined graphically by plotting the percentage inhibition on the ordinate against the log of the concentration (μm) on the abscissa.

The IC50 is the concentration that gives 50% inhibition. Consider `CCN(CC)CCCC(C)Nc1c2ccc(Cl)cc2nc2ccc(OC)cc12` (centres unmarked) [MEPACRINE, quinacrin hydrochloride], for which the results for the IC50 in test [1] and in test [2] were 20 µM and 1600 µM, respectively.
